Measurements as given in article PMC4894417, “Quantitative High-Throughput Profiling of Environmental Chemicals and Drugs that Modulate Farnesoid X Receptor” (Scientific Reports, 2014).
“And” between values parts separate entries of the source, which are not always exact repeats. Equal entries are not always repeated. “Also recorded” adds a separate entry of the source. Where two headings read alike, the source gives them in different places.

Tests used:
FXR-LBD [1] = molecular target: T1, FXR-LBD (Homo sapiens, UniProt Q96RI1); test: FXR TR-FRET coactivator recruitment assay, agonist mode; type: biochemical; conditions: Table 1; coactivator SRC2-2 recruitment
T1 construct: The glutathione S-transferase (GST)-tagged FXR-LBD protein; purchased Life Technologies
T1 sequence (Q96RI1 262-486 limits assumed): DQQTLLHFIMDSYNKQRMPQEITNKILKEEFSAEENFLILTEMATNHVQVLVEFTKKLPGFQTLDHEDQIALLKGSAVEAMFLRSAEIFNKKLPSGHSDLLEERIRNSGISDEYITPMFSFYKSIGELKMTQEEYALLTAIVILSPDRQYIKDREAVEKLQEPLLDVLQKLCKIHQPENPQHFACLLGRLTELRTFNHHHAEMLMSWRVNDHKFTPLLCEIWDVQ

FXR-LBD [2] = molecular target: T1, FXR-LBD; test: FXR TR-FRET coactivator recruitment assay, antagonist mode (50 μM CDCA); type: biochemical
human FXR [3] = molecular target: T2, human FXR (Homo sapiens, UniProt Q96RI1); test: FXR-bla reporter gene assay, agonist mode (qHTS); conditions: for FXR-bla, agonist Efficacy: Table 1, activation as percent of positive control (CDCA 100%), mean ± SD of 3; for FXR agonist activity: FXR-bla assay; for FXR-bla, agonist EC50: Table 1, confirmed compounds, mean ± SD of 3 experiments
T2 sequence (Q96RI1 with tags, fused parts or gaps limits assumed): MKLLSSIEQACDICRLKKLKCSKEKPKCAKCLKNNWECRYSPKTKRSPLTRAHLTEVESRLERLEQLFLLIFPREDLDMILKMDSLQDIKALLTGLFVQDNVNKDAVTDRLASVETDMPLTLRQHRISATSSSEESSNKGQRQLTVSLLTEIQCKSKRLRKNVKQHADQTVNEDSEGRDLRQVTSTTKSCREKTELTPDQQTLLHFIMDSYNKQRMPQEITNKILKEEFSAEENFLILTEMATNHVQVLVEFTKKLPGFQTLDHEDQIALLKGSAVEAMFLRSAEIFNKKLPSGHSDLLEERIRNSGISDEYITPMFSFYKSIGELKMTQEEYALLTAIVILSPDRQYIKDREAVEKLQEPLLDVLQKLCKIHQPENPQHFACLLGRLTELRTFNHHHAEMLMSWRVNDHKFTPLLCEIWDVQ

[4] = test system: FXR-UAS-bla HEK293T cells; test: Cell viability assay (CellTiter Glo) in the same well as FXR-bla; conditions: for Cell viability IC50: Table 1, mean ± SD of 3 experiments
human FXR [5] = molecular target: T2, human FXR; test: FXR-bla reporter gene assay, antagonist mode (CDCA-induced transactivation); conditions: for FXR-bla, antagonist Efficacy: inhibition as percent of positive control (guggulsterone)
[6] = test system: FXR-UAS-bla HEK293T cells
[7] = Cell viability assay (CellTiter Glo) in the same well as FXR-bla; conditions: human, FXR-UAS-bla HEK293T cells
vitamin D receptor (VDR) = vitamin D receptor (VDR) (Homo sapiens, UniProt P11473); test: VDR-bla reporter gene assay (agonist and antagonist modes)
Sequence of vitamin D receptor (VDR) (P11473 with tags, fused parts or gaps limits assumed): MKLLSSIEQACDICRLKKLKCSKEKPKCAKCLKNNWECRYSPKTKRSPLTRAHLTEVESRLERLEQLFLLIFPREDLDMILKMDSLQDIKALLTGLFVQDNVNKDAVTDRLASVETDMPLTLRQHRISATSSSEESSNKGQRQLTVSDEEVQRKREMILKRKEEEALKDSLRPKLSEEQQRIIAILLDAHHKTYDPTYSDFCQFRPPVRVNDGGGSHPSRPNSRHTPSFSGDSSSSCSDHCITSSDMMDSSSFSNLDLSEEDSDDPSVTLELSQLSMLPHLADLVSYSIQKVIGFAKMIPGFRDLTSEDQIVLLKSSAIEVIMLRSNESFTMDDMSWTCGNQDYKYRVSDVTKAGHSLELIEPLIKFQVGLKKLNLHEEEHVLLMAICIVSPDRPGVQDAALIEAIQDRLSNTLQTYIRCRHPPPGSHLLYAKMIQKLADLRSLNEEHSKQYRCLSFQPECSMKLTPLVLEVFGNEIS

[8] = molecular target: peroxisome proliferator-activated receptor gamma (PPARγ) (Homo sapiens, UniProt P37231); test: PPARγ-bla reporter gene assay (agonist and antagonist modes)
Sequence of peroxisome proliferator-activated receptor gamma (PPARγ) (P37231 with tags, fused parts or gaps limits assumed): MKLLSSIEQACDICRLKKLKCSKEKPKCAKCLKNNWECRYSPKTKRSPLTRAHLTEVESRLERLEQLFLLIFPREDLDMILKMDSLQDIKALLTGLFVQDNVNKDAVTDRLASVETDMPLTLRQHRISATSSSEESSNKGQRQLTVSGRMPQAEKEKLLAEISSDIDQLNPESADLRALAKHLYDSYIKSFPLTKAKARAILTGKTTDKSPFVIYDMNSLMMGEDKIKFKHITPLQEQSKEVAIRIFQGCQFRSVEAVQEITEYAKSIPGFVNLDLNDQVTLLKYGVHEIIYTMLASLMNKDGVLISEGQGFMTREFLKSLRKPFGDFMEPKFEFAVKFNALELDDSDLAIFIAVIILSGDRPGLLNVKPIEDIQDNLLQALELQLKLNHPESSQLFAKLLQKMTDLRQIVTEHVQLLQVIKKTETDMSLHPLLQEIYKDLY

[9] = Table 1, in the presence of 50 μM CDCA
[10] = read-out: FXR agonist mode EC50, Table S1, primary screening
[11] = FXR antagonist mode IC50, Table S1, primary screening, 50 µM CDCA
[12] = Table S1, primary screening, CDCA 100%
[13] = Table S1, primary screening, 50 µM CDCA

Nc1c2ccccc2nc2ccccc12 [9-Aminoacridine]
FXR TR-FRET, agonist EC50 (FXR-LBD [1]): unable to induce coactivator recruitment; also recorded: Inactive
FXR TR-FRET, antagonist IC50 (FXR-LBD [2]; [9]): Inactive
EC50 (human FXR [3]): 11.2 ± 2.09 µM
FXR-bla, agonist Efficacy (human FXR [3]): 152% and 152 ± 22%
Cell viability IC50 [4]: Inactive
FXR-bla, antagonist IC50 (human FXR [5]; Table 1, 50 μM CDCA, mean ± SD of 3 experiments): Inactive

CC1=C(/C=C/C(C)=C/C=C/C(C)=C\C(=O)O)C(C)(C)CCC1 [13-cis Retinoic acid]
Cytotoxicity Efficacy [6]: 52 ± 44

C/C=C1/C(=O)C[C@H]2[C@@H]3CCC4=CC(=O)CC[C@]4(C)[C@H]3CC[C@]12C [(E)-Guggulsterone]
Cytotoxicity IC50 [6]: Inactive

C/C=C1\C(=O)C[C@H]2[C@@H]3CCC4=CC(=O)CC[C@]4(C)[C@H]3CC[C@]12C [(Z)-Guggulsterone]
Cytotoxicity IC50 [6]: Inactive

CC1(C)CCC(C)(C)c2cc(NC(=O)c3ccc(C(=O)O)cc3)ccc21 [AM80]
Cytotoxicity IC50 [6]: Inactive
FXR agonist mode Efficacy (human FXR [3]): 18 ± 7
FXR agonist activity (human FXR [3]): selectively induced transactivation of FXR
EC50 (human FXR [3]; [10]): 38.9 ± 2.36 µM
FXR antagonist mode IC50 (human FXR [5]): Inactive

CC(C)C[C@H](NC(=O)[C@H](Cc1ccccc1)NC(=O)c1cnccn1)B(O)O [Bortezomib]
FXR agonist mode EC50 (human FXR [3]; Table S1, primary screening): Inactive
IC50 at 16 h [7]: 0.22 ± 0.1 µM
Cytotoxicity Efficacy ([4]; Table S1, primary screening): 57 ± 2%
IC50 (human FXR [5]; [11]): 0.44 ± 0.21 µM
FXR antagonist activity (human FXR [5]; FXR-bla assay, CDCA-induced): inconclusive antagonists

CC1=C2C[C@H]3[C@@H](CC=C4C[C@@H](O)CC[C@@]43C)[C@@H]2CC[C@]12O[C@@H]1C[C@H](C)CN[C@H]1[C@H]2C [Cyclopamine]
FXR TR-FRET, agonist EC50 (FXR-LBD [1]): unable to induce coactivator recruitment; also recorded: Inactive
FXR TR-FRET, antagonist IC50 (FXR-LBD [2]; [9]): Inactive
EC50 (human FXR [3]): 10.6 ± 3.13 µM
FXR-bla, agonist Efficacy (human FXR [3]): 94% and 94 ± 9%
IC50 ([4]; Homo sapiens, HEK-293T, read-out: Cell viability IC50): 17.6 µM
FXR-bla, antagonist IC50 (human FXR [5]): Inactive

C[C@H](CCC(=O)O)[C@H]1CC[C@H]2[C@@H]3CC[C@@H]4C[C@H](O)CC[C@]4(C)[C@H]3C[C@H](O)[C@]12C [DCA, Deoxycholic acid]
EC50 (human FXR [3]): 47.3 µM
FXR agonist activity (human FXR [3]): selectively induced transactivation of FXR
FXR agonist mode Efficacy (human FXR [3]; [12]): 50 ± 12%
IC50 at 16 h [7]: 66.5 ± 16.1 µM
Cytotoxicity Efficacy ([4]; Table S1, primary screening): 73 ± 17%
FXR antagonist mode IC50 (human FXR [5]; [13]): Inactive

C[C@H]1O[C@@H](O[C@H]2[C@@H](O)C[C@H](O[C@H]3[C@@H](O)C[C@H](O[C@H]4CC[C@@]5(C)[C@H](CC[C@@H]6[C@@H]5C[C@@H](O)[C@]5(C)[C@@H](C7=CC(=O)OC7)CC[C@]65O)C4)O[C@@H]3C)O[C@@H]2C)C[C@H](O)[C@@H]1O [Digoxin]
FXR agonist mode EC50 (human FXR [3]): Inactive
IC50 at 16 h [7]: 0.02 ± 0.01 µM
Cytotoxicity Efficacy ([4]; Table S1, primary screening): 35 ± 7%
FXR antagonist activity (human FXR [5]): inconclusive antagonists
FXR antagonist mode Efficacy (human FXR [5]): 92 ± 10%
IC50 (human FXR [5]; [11]): 0.08 ± 0.02 µM

O=C1c2ccccc2C(=O)C1C(=O)C(c1ccccc1)c1ccccc1 [Diphacinone]
FXR TR-FRET, agonist EC50 (FXR-LBD [1]): Inactive
FXR TR-FRET, antagonist IC50 (FXR-LBD [2]): Inactive
FXR-bla, agonist EC50 (human FXR [3]): Inactive
Cell viability IC50 [4]: Inactive
IC50 (human FXR [5]; FXR-bla, antagonist IC50): 15 µM

OCCN(CCO)c1nc(N2CCCCC2)c2nc(N(CCO)CCO)nc(N3CCCCC3)c2n1 [Dipyridamole]
FXR TR-FRET, agonist EC50 (FXR-LBD [1]): Inactive
FXR TR-FRET, antagonist IC50 (FXR-LBD [2]; [9]): Inactive
FXR-bla, agonist EC50 (human FXR [3]): Inactive
Cell viability IC50 [4]: Inactive
IC50 (human FXR [5]): 3.5 ± 0.4 µM
FXR-bla, antagonist Efficacy (human FXR [5]; Table 1, 50 μM CDCA): 81 ± 5%
FXR antagonist Efficacy (human FXR [5]; Table S3, 50 µM CDCA): 53 ± 11%

Cn1cc(C2=C(c3cn(C4CCN(Cc5ccccn5)CC4)c4ccccc34)C(=O)NC2=O)c2ccccc21 [Enzastaurin]
FXR TR-FRET, agonist EC50 (FXR-LBD [1]): Inactive
FXR TR-FRET, antagonist IC50 (FXR-LBD [2]; [9]): Inactive
FXR-bla, agonist EC50 (human FXR [3]): Inactive
Cell viability IC50 [4]: Inactive
IC50 (human FXR [5]): 10.2 ± 0.69 µM
FXR-bla, antagonist Efficacy (human FXR [5]; Table 1, 50 μM CDCA): 110 ± 9%

CC(C)[C@H](C(=O)OC(C#N)c1cccc(Oc2ccccc2)c1)c1ccc(OC(F)F)cc1 (some centres unmarked) [Flucythrinate]
FXR agonist mode EC50 (human FXR [3]; Table S1, primary screening): Inactive
VDR activity (vitamin D receptor (VDR)): antagonist activity
Cytotoxicity IC50 ([4]; Table S1, primary screening): Inactive
FXR antagonist mode Efficacy (human FXR [5]): 37 ± 9
IC50 (human FXR [5]; FXR antagonist mode IC50): 31.4 ± 20.5 µM

O=c1c(-c2ccc(O)cc2)coc2cc(O)cc(O)c12 [Genistein]
Cytotoxicity IC50 [6]: Inactive
FXR agonist mode EC50 (human FXR [3]; Table S1, primary screening): Inactive
IC50 (human FXR [5]; FXR antagonist mode IC50): 22.9 ± 3.16 µM
FXR antagonist mode Efficacy (human FXR [5]; [13]): 57 ± 6%

C[C@H](CCC(=O)O)[C@H]1CC[C@H]2[C@@H]3CC[C@@H]4C[C@H](O)CC[C@]4(C)[C@H]3CC[C@]12C [LCA, lithocholic acid]
FXR agonist activity (human FXR [3]): selectively induced transactivation of FXR
FXR agonist mode Efficacy (human FXR [3]; [12]): 20 ± 7%
IC50 at 16 h [7]: 43.8 ± 4.18 µM
Cytotoxicity Efficacy ([4]; Table S1, primary screening): 65 ± 22%
FXR antagonist mode Efficacy (human FXR [5]; [13]): 75 ± 40%

COC(=O)C1=C(C)NC(C)=C(C(=O)OCCN2CCN(C(c3ccccc3)c3ccccc3)CC2)C1c1cccc([N+](=O)[O-])c1 (centres unmarked) [Manidipine]
EC50 (human FXR [3]): 6.92 ± 4 µM
FXR agonist activity (human FXR [3]): weak FXR agonist activity
FXR agonist mode Efficacy (human FXR [3]; [12]): 13 ± 1%
IC50 at 16 h [7]: 18.2 ± 15.1 µM
Cytotoxicity Efficacy ([4]; Table S1, primary screening): 49 ± 17%
IC50 (human FXR [5]): 19.2 ± 10.4 µM
FXR antagonist mode Efficacy (human FXR [5]; [13]): 57 ± 35%

COCCOC(=O)C1=C(C)NC(C)=C(C(=O)OC(C)C)C1c1cccc([N+](=O)[O-])c1 (centres unmarked) [Nimodipine]
Cytotoxicity IC50 [6]: Inactive

COC(=O)Nc1nc2ccc(C(=O)c3cccs3)cc2[nH]1 [Nocodazole]
FXR TR-FRET, agonist EC50 (FXR-LBD [1]): Inactive
FXR TR-FRET, antagonist IC50 (FXR-LBD [2]): Inactive
FXR-bla, agonist EC50 (human FXR [3]): Inactive
VDR activity (vitamin D receptor (VDR)): inhibiting β-lactamase expression
PPARγ activity [8]: inhibiting β-lactamase expression
Cell viability IC50 [4]: Inactive
FXR antagonist Efficacy (human FXR [5]): 54 ± 2%
FXR antagonist activity (human FXR [5]; FXR-bla assay, CDCA-induced): inhibiting β-lactamase expression
IC50 (human FXR [5]; FXR-bla, antagonist IC50): 0.29 µM
IC50 (human FXR [5]; IC50, FXR-bla antagonist mode, primary screening, CDCA-induced): 0.32 µM

CO[C@H]1C[C@H](O[C@@H]2/C(C)=C/C[C@@H]3C[C@@H](C[C@]4(CC[C@H](C)[C@@H](C5CCCCC5)O4)O3)OC(=O)[C@@H]3C=C(C)/C(=N/O)[C@H]4OC/C(=C\C=C\[C@@H]2C)[C@]43O)O[C@@H](C)[C@@H]1O [Selamectin]
Cytotoxicity IC50 [6]: Inactive
FXR agonist Efficacy (human FXR [3]): 68 ± 5%
FXR agonist mode Efficacy (human FXR [3]): 68 ± 5%
EC50 (human FXR [3]; FXR agonist mode EC50): 5.98 ± 0.39 µM
FXR antagonist Efficacy (human FXR [5]): 45 ± 6%
FXR antagonist mode Efficacy (human FXR [5]): 45 ± 6%
IC50 (human FXR [5]; FXR antagonist mode IC50): 2.48 ± 0.82 µM

CC[C@]1(O)C[C@@H]2CN(CCc3c([nH]c4ccccc34)[C@@](C(=O)OC)(c3cc4c(cc3OC)N(C)[C@H]3[C@@](O)(C(=O)OC)[C@H](OC(C)=O)[C@]5(CC)C=CCN6CC[C@]43[C@@H]65)C2)C1 [Vinblastine]
FXR TR-FRET, agonist EC50 (FXR-LBD [1]): Inactive
FXR TR-FRET, antagonist IC50 (FXR-LBD [2]; [9]): Inactive
FXR-bla, agonist EC50 (human FXR [3]): Inactive
Cell viability IC50 [4]: Inactive
IC50 (human FXR [5]): 0.1 ± 0.04 µM
FXR-bla, antagonist Efficacy (human FXR [5]; Table 1, 50 μM CDCA): 57 ± 7%
FXR antagonist Efficacy (human FXR [5]; Table S3, 50 µM CDCA): 59 ± 2%

Eprinomectin B1a
Cytotoxicity Efficacy [6]: 108 ± 4%
EC50 [6]: 14 ± 1.6 µM
IC50 [6]: 14 ± 1.6 µM
FXR agonist mode Efficacy (human FXR [3]; [12]): 41 ± 1%
FXR agonist Efficacy (human FXR [3]; Table S3): 41 ± 1%
EC50 (human FXR [3]; [10]): 5.33 ± 0.35 µM
FXR antagonist mode Efficacy (human FXR [5]; [13]): 110 ± 6%
FXR antagonist Efficacy (human FXR [5]; Table S3, 50 µM CDCA): 110 ± 6%
IC50 (human FXR [5]; read-out: FXR antagonist mode IC50, Table S1, primary screening, 50 µM CDCA): 14.5 ± 0.98 µM
